Columns and labels:
Assay type in all cases: cell-based
[1] = target: T1, human TRPV4 (hTRPV4/CHO cells) (Homo sapiens, UniProt Q9HBA0); test: Test Example 2: TRPV4 inhibitory activity (IC50 value), 4α-PDD stimulation, Fluo3 calcium fluorescence (FLIPR)
T1 construct: expressed in transfected cells; host or cells: CHO-K1
Description: TRPV4 Inhibitory Activity (IC50 Value)
(§1) For each compound, TRPV4 inhibitory activity was measured using cells.
(§2) (Method) The procedures of evaluating TRPV4 inhibitory activity of a compound are as follows.
(§3) (1) TRPV4 inhibitory activity was measured using CHO-K1 cells stably expressing human TRPV4 (hTRPV4/CHO cells).
(2) In the day before the experimental day, frozen cell were thawed and washed with the culture medium (MEM-α, 10% FBS, 4 mmol/L L-Glutamine, 50 unit Penicillin, 50 μg/mL Streptomycin). Then cells were suspended in the culture medium.
(3) The 384-well plates which hTRPV4/CHO cells were seeded at densities of 4000 cells/well in the culture medium and cultured in a CO2 incubator in the presence of 5% CO2 at 37° C. for 24 hours was used as assay plates.
(4) The assay plate was washed with assay buffer (Hanks, 20 mmol/L HEPES, 2.5 mmol/L probenecid, pH7.4), and the buffer were remained at 20 μL/well.
(5) 10 μl of dye loading buffer (9 μmol/L Fluo 3-AM, 0.09% Pluronic F-127, 1% BSA/assay buffer) was added to each well, then the assay plate was incubated in a CO2 incubator in the presence of 5% CO2 at 37° C. for one hour. (final conc.; 3 μmol/L Fluo3-AM).
(6) The assay plate was washed with the assay buffer, and the buffers were remained at 20 μL/well. Then the assay plate was incubated for 10 min at room temperature.
(7) 20 μL of diluted compound solution was added to each well of assay plate, and mixed with built-in Pipette and Mixer of the Fluorescence analysis system FLIPR 384 (Molecular devices).
(8) After incubation for 4 min, 25 μL of 4α-PDD solution were applied to each well of assay plate and mixed with the FLIPR TETRA. (final conc.; 600 nmol/L 4α-PDD)
(9) The fluorescent intensity was measured with FLIPR TETRA system for 7 min from the point of time addition the compound solution, at Ex 488 nm, Em 510-570 nm wavelength.
TRPV4 inhibitory activity (IC50 value) of a compound was calculated according to the following procedure.
(§4) (10) In the presence of the compound, the difference between maximal and minimal of fluorescent intensity value for 3 min from just before addition of 4α-PDD solution was calculated, and it was referred as Max-Min value. Max-Min value of the Ruthenium Red at 20 μM was defined as 100% inhibitory activity, Max-Min value in the absence of the compound was defined as 0% inhibitory activity. TRPV4 inhibitory activity of the compound was calculated by the following formula.
(§5) (1−(Max−Min value of the compound−100% inhibitory activity)/(0% inhibitory activity−100% inhibitory activity))×100
(11) Inhibitory activity was calculated at 10 points with twice serial dilution, in the final concentration of the compound from 3.85 μg/mL to 7.5 ng/mL, the IC50 value (nmol/L) was calculated by logistic approximation method.

[2] = target: T1, human TRPV4 (hTRPV4/CHO cells); test: Test Example 4: TRPV4 inhibitory activity (Ki value), 4α-PDD stimulation, Fluo-3 calcium fluorescence (FDSS 3000); details: Test Example 4, 4α-PDD stimulation, read-out: Test 4 Ki
Description: TRPV4 Inhibitory Activity (Ki Value)
as §1, §2, §3
(2) Cells were subcultured using the MEM-α medium (SIGMA M4526: 500 ml), FBS (HyCloneSH30070.03: 10%), L-Glutamine 200 mmol/L (GIBCO: 4 mmol/L), P/S (nacalai tesque: 1%), G418 (nacalai tesque: 1 mg/mL).
(3) The 96-well plates which hTRPV4/CHO cells were seeded at densities of 2×10^4 cells/well in the culture medium in the day before the experimental day, and cultured in a CO2 incubator in the presence of 5% CO2 at 37° C. for 24 hours was used as assay plates.
(4) Cells were washed with assay buffer (Hank's Balanced Salt Solution 9.8 g, 1 mol/L HEPES (pH7.5), 250 mmol/L probenecid).
(5) Fluo-3, fluorescent dye for Ca influx assay was added to each well, then the assay plate was incubated in a CO2 incubator in the presence of 5% CO2 at 37° C. for one hour (final conc.; 5 μmol/L Fluo-3).
(6) The assay plate was washed with the assay buffer, and the buffer was remained at 30 μL/well. Then the assay plate was incubated for 10 min at 37° C.
(7) 20 μL of diluted compound solution was added to each well of assay plate, and mixed with built-in Pipette and Mixer of the fluorescence analysis system FDSS 3000 (Hamamatsu Photonics).
(8) 50 μL of 4α-PDD solution (concluding 0.1% Pluronic F-127) was applied to each well of assay plate and mixed.
(9) The fluorescent intensity was measured by FDSS 3000 for 8 min from the point of time addition the compound solution, at Ex 480 nm, Em 540 nm wavelength.
TRPV4 inhibitory activity (Ki value) of a compound was calculated according to the following procedure.
as §4, with “8” for “3”, “10” for “20”
as §5
(11) By the following formula, inhibitory activity was calculated at 10 points with three fold serial dilution, in the final concentration of the compound from 10 μmol/L to 0.5 nmol/L. The IC50 value was calculated by dose-response curve.
100−[(fluorescent intensity in the presence of the compound−fluorescent intensity of back ground)/(total fluorescent intensity−fluorescent intensity of back ground)]×100
(12) In the presence of the compound, activity of 4α-PDD was measured at 9 points with three fold serial dilution from 20 μmol/L. Activity of 4α-PDD was calculated by the following formula.
(Max−Min value of the each 4α-PDD concentration−0% activity)/(100% activity−0% activity))×100
(13) Effective activity was calculated in 4α-PDD the above. The EC50 value was calculated by dose-response curve.
(14) The Ki value of a compound was calculated by the following formula.
Ki=IC50 value/1+([A]/EC50)
[A]: Concentration of agonist (nmol/L)

[3] = target: T1, human TRPV4 (hTRPV4/CHO cells); test: Test Example 1: TRPV4 inhibitory activity (IC50 value), 4α-PDD stimulation, Fluo4 calcium fluorescence (FLIPR TETRA); details: Test Example 1, 4α-PDD stimulation, read-out: Test 1 IC50
[4] = Test Example 2, 4α-PDD stimulation, read-out: Test 2 IC50

T1 sequence (Q9HBA0 whole entry): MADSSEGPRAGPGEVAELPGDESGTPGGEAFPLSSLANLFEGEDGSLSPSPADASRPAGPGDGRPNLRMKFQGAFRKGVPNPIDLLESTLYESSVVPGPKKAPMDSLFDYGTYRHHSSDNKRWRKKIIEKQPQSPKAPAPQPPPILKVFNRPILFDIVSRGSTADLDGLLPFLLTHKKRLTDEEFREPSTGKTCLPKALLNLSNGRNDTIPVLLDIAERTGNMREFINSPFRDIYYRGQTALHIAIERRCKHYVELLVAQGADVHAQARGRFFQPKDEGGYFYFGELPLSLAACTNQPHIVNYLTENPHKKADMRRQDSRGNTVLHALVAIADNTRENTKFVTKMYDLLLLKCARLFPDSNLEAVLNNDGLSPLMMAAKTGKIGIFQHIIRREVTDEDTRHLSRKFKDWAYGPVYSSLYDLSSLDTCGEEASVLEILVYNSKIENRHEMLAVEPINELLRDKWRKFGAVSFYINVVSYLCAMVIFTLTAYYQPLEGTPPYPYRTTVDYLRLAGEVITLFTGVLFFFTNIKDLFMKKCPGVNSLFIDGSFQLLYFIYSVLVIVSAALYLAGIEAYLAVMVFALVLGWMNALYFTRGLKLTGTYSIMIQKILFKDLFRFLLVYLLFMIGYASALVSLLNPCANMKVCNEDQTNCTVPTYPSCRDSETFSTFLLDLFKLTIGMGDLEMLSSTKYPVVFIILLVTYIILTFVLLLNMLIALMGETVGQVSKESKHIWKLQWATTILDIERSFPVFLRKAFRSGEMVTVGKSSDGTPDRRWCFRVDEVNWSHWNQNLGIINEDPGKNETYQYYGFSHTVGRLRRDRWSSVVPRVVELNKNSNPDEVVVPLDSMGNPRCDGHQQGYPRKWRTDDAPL

| SMILES | IC50 [1, 4] | Ki [2] | IC50 [3] | IC50 ([1]; 600 nmol/L 4α-PDD, Fluo3-AM, read-out: TRPV4 inhibitory activity (IC50 value)) |
| --- | --- | --- | --- | --- |
| Cc1ccnc(Nc2nc(-c3sc(N)nc3C)cs2)c1 [II-23] | 1 to 8 µM | – | – | – |
| Cc1nc(C)c(-c2csc(NC(=O)C3CC(=O)N(Cc4ccccc4)C3)n2)s1 (centres unmarked) [Compound I-47] | – | 0.1 to 1 µM | 1 to 8 µM | – |
| Cc1nc(C)c(-c2csc(NC(=O)Cc3ccc(CS(=O)(=O)C(F)(F)F)cc3)n2)s1 [Compound I-35] | – | < 0.1 µM | < 0.1 µM | – |
| Cc1nc(C)c(-c2csc(NC(=O)Cc3ccc(Br)cc3)n2)s1 [Compound I-225] | – | < 0.1 µM | < 0.1 µM | – |
| CC(C)(C)c1ccc(C(=O)Nc2nc(-c3ccc(Cl)s3)cs2)cc1 [II-12] | 1 to 8 µM | – | – | – |
| CC(=O)Nc1nc(-c2ccc(Br)s2)cs1 [II-13] | 1 to 8 µM | – | – | – |
| Cc1nc(C)c(-c2csc(NC(=O)C(C)(C)c3ccc(Cl)cc3)n2)s1 [Compound I-3] | – | 0.1 to 1 µM | 0.1 to 1 µM | – |
| Cc1cccc(Nc2nc(-c3sc(N)nc3C)cs2)c1 [II-20] | 0.1 to 1 µM | – | – | – |
| Cc1ccc(-c2csc(NC(=O)COc3ccc(Br)cc3)n2)s1 [II-16] | 0.1 to 1 µM | – | – | – |
| Cc1nc(C)c(-c2csc(NC(=O)N(C)c3ccc(Br)cc3)n2)s1 [Compound I-59] | – | 0.1 to 1 µM | 0.1 to 1 µM | – |
| Cc1nc(C)c(-c2csc(NC(=O)C(C)C)n2)s1 [Compound I-32] | – | < 0.1 µM | 0.1 to 1 µM | – |
| Cc1nc(C)c(-c2csc(NC(=O)Cc3ccc(S(=O)(=O)C(F)F)cc3)n2)s1 [Compound I-36] | – | < 0.1 µM | < 0.1 µM | – |
| Cc1nc(C)c(-c2csc(NC(=O)C(C)c3ccc(Cl)cc3)n2)s1 (centres unmarked) [Compound I-4] | – | < 0.1 µM | < 0.1 µM | – |
| Cc1nc(C)c(-c2csc(NC(=O)C3CCCC3)n2)s1 [Compound I-224] | – | < 0.1 µM | 0.1 to 1 µM | – |
| O=C(Nc1nc(-c2cccs2)cs1)C1c2ccccc2Oc2ccccc21 [II-15] | 1 to 8 µM | – | – | – |
| Cc1nc(CF)sc1-c1csc(NC(=O)Cc2ccc(S(=O)(=O)C(F)(F)F)cc2)n1 [Compound I-31] | – | < 0.1 µM | < 0.1 µM | – |
| Cc1nc(C)c(-c2csc(NC(=O)Cc3ccc(S(=O)(=O)C(F)(F)F)cc3)n2)s1 [Compound I-186] | – | < 0.1 µM | < 0.1 µM | – |
| Cc1ncc(-c2csc(NC(=O)Cc3ccc(Br)cc3)n2)s1 [Compound I-14] | – | < 0.1 µM | < 0.1 µM | – |
| Cc1nc(C)c(-c2csc(NC(=O)Cc3ccc(C(F)(F)F)cc3)n2)s1 [Compound I-19] | – | < 0.1 µM | < 0.1 µM | – |
| Cc1nc(C)c(-c2csc(NC(=O)CC3CC(F)(F)C3(F)F)n2)s1 (centres unmarked) [Compound I-53] | – | 0.1 to 1 µM | 0.1 to 1 µM | – |
| Cc1ncsc1-c1csc(NC(=O)Cc2ccc(Br)cc2)n1 [Compound I-13] | – | 0.1 to 1 µM | < 0.1 µM | – |

| SMILES | IC50 [1, 4] | Ki [2] | IC50 [3] | IC50 ([1]; 600 nmol/L 4α-PDD, Fluo3-AM, read-out: TRPV4 inhibitory activity (IC50 value)) |
| --- | --- | --- | --- | --- |
| COc1ccc(/C(C)=N/Nc2nc(-c3sc(C)nc3C)cs2)cc1 [II-19] | 0.1 to 1 µM | – | – | – |
| O=C(Nc1nc(-c2ccc(Cl)s2)cs1)c1cccc(C(F)(F)F)c1 [II-10] | 1 to 8 µM | – | – | – |
| Cc1nc(C)c(-c2csc(Nc3ccccn3)n2)s1 [II-22] | < 0.1 µM | – | – | 0.073 µM |
| Cc1nc(C(F)F)sc1-c1csc(NC(=O)Cc2ccc(S(=O)(=O)C(F)(F)F)cc2)n1 [Compound I-29] | – | 0.1 to 1 µM | 0.1 to 1 µM | – |
| c1ccc(Nc2nc(-c3cccs3)cs2)nc1 [II-9] | 1 to 8 µM | – | – | – |
| Cc1nc(C)c(-c2csc(NC(=O)Cn3cc(Cl)cn3)n2)s1 [Compound I-50] | – | < 0.1 µM | 0.1 to 1 µM | – |
| Cc1nc(C)c(-c2csc(NC(=O)C3CCC3)n2)s1 [Compound I-226] | – | < 0.1 µM | 0.1 to 1 µM | – |
| C=CCNc1nc(-c2sc(C)nc2C)cs1 [II-24] | 1 to 8 µM | – | – | – |
| Cc1nc(C)c(-c2csc(NC(=O)Cc3ccc(F)c(Cl)c3)n2)s1 [Compound I-49] | – | < 0.1 µM | < 0.1 µM | – |
| O=C(CSc1ccccc1)Nc1nc(-c2ccc(Br)s2)cs1 [II-17] | 1 to 8 µM | – | – | – |
| O=C(Nc1nc(-c2ccc(Br)s2)cs1)c1cccc(F)c1 [II-11] | 1 to 8 µM | – | – | – |
| Cc1nc(N)sc1-c1csc(Nc2ccc(Br)cc2Br)n1 [II-21] | 1 to 8 µM | – | – | – |
| Cc1nc(C)c(-c2csc(NC(=O)C3CCCCC3)n2)s1 [Compound I-223] | – | 0.1 to 1 µM | 0.1 to 1 µM | – |
| C/C(=N\Nc1nc(-c2cccs2)cs1)c1ccc(Cl)c(Cl)c1 [II-18] | 1 to 8 µM | – | – | – |
| Cc1nc(C)c(-c2csc(NC(=O)C3CCN(c4ccccc4)C3)n2)s1 (centres unmarked) [Compound I-46] | – | < 0.1 µM | < 0.1 µM | – |
| Cc1nc(C)c(-c2csc(NC(=O)c3ccc(S(=O)(=O)C(F)(F)F)cc3)n2)s1 [Compound I-24] | – | 0.1 to 1 µM | 0.1 to 1 µM | – |
| Cc1nc(C)c(-c2csc(NC(=O)C3(c4ccc(Cl)cc4)CC3)n2)s1 [Compound I-2] | – | 0.1 to 1 µM | 0.1 to 1 µM | – |
| O=C(Nc1nc(-c2ccc(Br)s2)cs1)c1ccc(Br)s1 [II-14] | 1 to 8 µM | – | – | – |
| Cc1nc(C)c(-c2csc(NC(=O)C3CC3)n2)s1 [Compound I-23] | – | < 0.1 µM | 0.1 to 1 µM | – |
| N=C(N)Nc1ncc(-c2csc(NC(=O)c3ccccc3)n2)s1 [Compound I-187] | 1 to 8 µM | – | – | – |
| Cc1nc(C)c(-c2csc(NC(=O)C3CC(F)(F)C3)n2)s1 [Compound I-34] | – | < 0.1 µM | 0.1 to 1 µM | – |
